# Data as given in the NIST ThermoML archive (doi:10.1021/je034097r).
# Numbers after ± are expanded uncertainties.
# Conditions: Capillary rise
compound,measurement,setting,value
COC [dimethyl ether],surface tension liquid-gas,213.12 K,24.52 ± 0.31 mN/m
same,surface tension liquid-gas,223.11 K,22.95 ± 0.31 mN/m
same,surface tension liquid-gas,228.19 K,22.26 ± 0.31 mN/m
same,surface tension liquid-gas,233.31 K,21.44 ± 0.31 mN/m
same,surface tension liquid-gas,238.15 K,20.75 ± 0.3 mN/m
same,surface tension liquid-gas,243.12 K,19.81 ± 0.3 mN/m
same,surface tension liquid-gas,248.12 K,19.3 ± 0.3 mN/m
same,surface tension liquid-gas,253.09 K,18.54 ± 0.3 mN/m
same,surface tension liquid-gas,258.11 K,17.71 ± 0.3 mN/m
same,surface tension liquid-gas,263.12 K,16.99 ± 0.3 mN/m
same,surface tension liquid-gas,268.08 K,16.27 ± 0.3 mN/m
same,surface tension liquid-gas,273.08 K,15.43 ± 0.3 mN/m
same,surface tension liquid-gas,278.06 K,14.6 ± 0.3 mN/m
same,surface tension liquid-gas,283.07 K,13.97 ± 0.3 mN/m
same,surface tension liquid-gas,288.04 K,13.16 ± 0.3 mN/m
same,surface tension liquid-gas,293.09 K,12.66 ± 0.3 mN/m
same,surface tension liquid-gas,298.08 K,11.73 ± 0.3 mN/m
same,surface tension liquid-gas,303.2 K,11 ± 0.3 mN/m
same,surface tension liquid-gas,308.12 K,10.22 ± 0.3 mN/m
same,surface tension liquid-gas,313.12 K,9.557 ± 0.3 mN/m
same,surface tension liquid-gas,318.18 K,9.089 ± 0.3 mN/m
same,surface tension liquid-gas,323.18 K,8.428 ± 0.3 mN/m
same,surface tension liquid-gas,328.14 K,7.64 ± 0.3 mN/m
same,surface tension liquid-gas,333.14 K,7.045 ± 0.3 mN/m
same,surface tension liquid-gas,338.09 K,6.368 ± 0.3 mN/m
same,surface tension liquid-gas,343.13 K,5.717 ± 0.3 mN/m
same,surface tension liquid-gas,348.07 K,5.148 ± 0.3 mN/m
same,surface tension liquid-gas,353.11 K,4.435 ± 0.3 mN/m
same,surface tension liquid-gas,358.11 K,3.94 ± 0.3 mN/m
same,surface tension liquid-gas,363.1 K,3.315 ± 0.3 mN/m
same,surface tension liquid-gas,368.04 K,2.779 ± 0.3 mN/m
